# Source: patent publication US11065257B2, “Substituted pyrazoloazepin-4-ones and their use as phosphodiesterase inhibitors” (LEO Pharma A/S, priority 2016, dated 2021)
# Target: T1, human PDE4D catalytic domain (Homo sapiens, UniProt Q08499)
# T1 construct: UniProt no; Q08499 [S380-L740]
# Assay: PDE4 Assay
# Type: biochemical
# Details: human PDE4D catalytic domain (S380-L740), TR-FRET with FAM-cAMP; expressed as a range of IC50; read-out: PDE4 Potency Range
# Method: The human PDE4D catalytic domain (UniProt no. Q08499 [S380-L740]) was incubated with a mixture of non-labelled cAMP (cyclic adenosine monophosphate) and fluorescein amidite (FAM) conjugated cAMP and titrated test or reference compound. Following brief incubation the enzymatic reaction was stopped by addition of binding buffer containing nanoparticles with immobilized trivalent metal ions capable of binding 1) AMP phospho groups and 2) terbium (Tb) donor fluorophores. Subsequent excitation of the Tb donor triggers time-resolved FRET to adjacent FAM acceptor molecules resulting in light emission. In the presence of a PDE4 inhibitor, AMP generation was reduced resulting in a lower fluorescence signal. The cAMP phosphodiester is not bound by the detection system.
# The results were calculated as the molar concentrations resulting in 50% inhibition of the substrate cleavage compared to controls samples, and are expressed as a range of IC50 (nM).
# T1 sequence (Q08499 380-740): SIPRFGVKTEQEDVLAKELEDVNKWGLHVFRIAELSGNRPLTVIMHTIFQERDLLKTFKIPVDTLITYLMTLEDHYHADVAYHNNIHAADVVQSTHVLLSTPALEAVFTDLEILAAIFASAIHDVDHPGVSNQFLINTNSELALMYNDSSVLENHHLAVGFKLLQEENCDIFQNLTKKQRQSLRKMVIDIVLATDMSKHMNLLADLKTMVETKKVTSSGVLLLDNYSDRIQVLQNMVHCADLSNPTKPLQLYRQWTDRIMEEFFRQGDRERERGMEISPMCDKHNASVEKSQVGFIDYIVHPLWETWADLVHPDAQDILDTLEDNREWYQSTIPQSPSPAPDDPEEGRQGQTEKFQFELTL
row,Structure (SMILES),IC50
1,"CCc1nn(CCCOC(=O)c2scnc2C)c2c1C(=O)NCC1(CCOCC1)C2 [Example 81, 3-(3-ethyl-4-oxo-spiro[6,8-dihydro-5H-pyrazolo[4,3-c]azepine-7,4′-tetrahydropyran]-1-yl)propyl 4-methylthiazole-5-carboxylate]",100 to 500 nM
2,"CCc1nn(CCCOC(=O)c2coc(C)n2)c2c1C(=O)NCC1(CCOCC1)C2 [Example 46, 3-(3-ethyl-4-oxo-spiro[6,8-dihydro-5H-pyrazolo[4,3-c]azepine-7,4′-tetrahydropyran]-1-yl)propyl 2-methyloxazole-4-carboxylate]",> 500 nM
3,"CCc1nn(CCOC(=O)c2cc(C)ns2)c2c1C(=O)NCC1(CCOCC1)C2 [Example 13, 2-(3-ethyl-4-oxo-spiro[6,8-dihydro-5H-pyrazolo[4,3-c]azepine-7,4′-tetrahydropyran]-1-yl)ethyl 3-methylisothiazole-5-carboxylate]",100 to 500 nM
4,"CCc1nn(CCCOC(=O)c2cc[nH]n2)c2c1C(=O)NCC1(CCOCC1)C2 [Example 18, 3-(3-ethyl-4-oxo-spiro[6,8-dihydro-5H-pyrazolo[4,3-c]azepine-7,4′-tetrahydropyran]-1-yl)propyl 1H-pyrazole-3-carboxylate]",100 to 500 nM
5,"CCc1nn(CCOC(=O)c2coc(C)n2)c2c1C(=O)NCC1(CCOCC1)C2 [Example 5, 2-(3-ethyl-4-oxo-spiro[6,8-dihydro-5H-pyrazolo[4,3-c]azepine-7,4′-tetrahydropyran]-1-yl)ethyl 2-methyloxazole-4-carboxylate]",> 500 nM
6,"CCc1nn(CCCOC(=O)c2ccns2)c2c1C(=O)NCC1(CCOCC1)C2 [Example 54, 3-(3-ethyl-4-oxo-spiro[6,8-dihydro-5H-pyrazolo[4,3-c]azepine-7,4′-tetrahydropyran]-1-yl)propyl isothiazole-5-carboxylate]",100 to 500 nM
7,"CCc1nn(CCCOC(=O)C2CCN(C(=O)OC)CC2)c2c1C(=O)NCC1(CCOCC1)C2 [Example 105, O4-[3-(3-ethyl-4-oxo-spiro[6,8-dihydro-5H-pyrazolo[4,3-c]azepine-7,4′-tetrahydropyran]-1-yl)propyl] O1-methyl piperidine-1,4-dicarboxylate]",100 to 500 nM
8,"CCc1nn(CCCOC(=O)C2CCCOC2)c2c1C(=O)NCC1(CCOCC1)C2 (centres unmarked) [Example 58, 3-(3-ethyl-4-oxo-spiro[6,8-dihydro-5H-pyrazolo[4,3-c]azepine-7,4′-tetrahydropyran]-1-yl)propyl tetrahydropyran-3-carboxylate]",> 500 nM
9,"CCc1nn(CCOC(=O)Cc2cc(C)no2)c2c1C(=O)NCC1(CCOCC1)C2 [Example 12, 2-(3-ethyl-4-oxo-spiro[6,8-dihydro-5H-pyrazolo[4,3-c]azepine-7,4′-tetrahydropyran]-1-yl)ethyl 2-(3-methylisoxazol-5-yl)acetate]",> 500 nM
10,"CCc1nn(CCCOC(=O)c2conc2C)c2c1C(=O)NCC1(CCOCC1)C2 [Example 45, 3-(3-ethyl-4-oxo-spiro[6,8-dihydro-5H-pyrazolo[4,3-c]azepine-7,4′-tetrahydropyran]-1-yl)propyl 3-methylisoxazole-4-carboxylate]",100 to 500 nM
11,"CCc1nn(CCCOC(=O)c2cc(C)nc(C)c2)c2c1C(=O)NCC1(CCOCC1)C2 [Example 86, 3-(3-ethyl-4-oxo-spiro[6,8-dihydro-5H-pyrazolo[4,3-c]azepine-7,4′-tetrahydropyran]-1-yl)propyl 2,6-dimethylpyridine-4-carboxylate]",100 to 500 nM
12,"CCc1nn(CCCOC(=O)c2cc(C)ns2)c2c1C(=O)NCC1(CCOCC1)C2 [Example 78, 3-(3-ethyl-4-oxo-spiro[6,8-dihydro-5H-pyrazolo[4,3-c]azepine-7,4′-tetrahydropyran]-1-yl)propyl 3-methylisothiazole-5-carboxylate]",100 to 500 nM
13,"CCc1nn(CCCOC(=O)C2CCN(C(C)=O)C2)c2c1C(=O)NCC1(CCOCC1)C2 (centres unmarked) [Example 93, 3-(3-ethyl-4-oxo-spiro[6,8-dihydro-5H-pyrazolo[4,3-c]azepine-7,4′-tetrahydropyran]-1-yl)propyl 1-acetylpyrrolidine-3-carboxylate]",> 500 nM
14,"CCc1nn(CCOC(=O)C2CCOCC2)c2c1C(=O)NCC1(CCOCC1)C2 [Example 8, 2-(3-ethyl-4-oxo-spiro[6,8-dihydro-5H-pyrazolo[4,3-c]azepine-7,4′-tetrahydropyran]-1-yl)ethyl tetrahydropyran-4-carboxylate]",> 500 nM
15,"CCc1nn(CCCOC(=O)c2cnnn2C)c2c1C(=O)NCC1(CCOCC1)C2 [Example 49, 3-(3-ethyl-4-oxo-spiro[6,8-dihydro-5H-pyrazolo[4,3-c]azepine-7,4′-tetrahydropyran]-1-yl)propyl 3-methyltriazole-4-carboxylate]",100 to 500 nM
16,"CCc1nn(CCCOC(=O)C2CCCN(C(=O)OC)C2)c2c1C(=O)NCC1(CCOCC1)C2 (centres unmarked) [Example 104, O3-[3-(3-ethyl-4-oxo-spiro[6,8-dihydro-5H-pyrazolo[4,3-c]azepine-7,4′-tetrahydropyran]-1-yl)propyl] O1-methyl piperidine-1,3-dicarboxylate]",100 to 500 nM
17,"CCc1nn(CCCOC(=O)C2CCOC2)c2c1C(=O)NCC1(CCOCC1)C2 (centres unmarked) [Example 28, 3-(3-ethyl-4-oxo-spiro[6,8-dihydro-5H-pyrazolo[4,3-c]azepine-7,4′-tetrahydropyran]-1-yl)propyl tetrahydrofuran-3-carboxylate]",> 500 nM
18,"CCc1nn(CCCOC(=O)c2ccnn2C)c2c1C(=O)NCC1(CCOCC1)C2 [Example 35, 3-(3-ethyl-4-oxo-spiro[6,8-dihydro-5H-pyrazolo[4,3-c]azepine-7,4′-tetrahydropyran]-1-yl)propyl 2-methylpyrazole-3-carboxylate]",100 to 500 nM
19,"CCc1nn(CCCOC(=O)c2cncn2C)c2c1C(=O)NCC1(CCOCC1)C2 [Example 41, 3-(3-ethyl-4-oxo-spiro[6,8-dihydro-5H-pyrazolo[4,3-c]azepine-7,4′-tetrahydropyran]-1-yl)propyl 3-methylimidazole-4-carboxylate]",100 to 500 nM
20,"CCc1nn(CCCOC(=O)C2CCS(=O)(=O)C2)c2c1C(=O)NCC1(CCOCC1)C2 (centres unmarked) [Example 96, 3-(3-ethyl-4-oxo-spiro[6,8-dihydro-5H-pyrazolo[4,3-c]azepine-7,4′-tetrahydropyran]-1-yl)propyl 1,1-dioxothiolane-3-carboxylate]",> 500 nM
21,"CCc1nn(CCCOC(=O)c2nonc2C)c2c1C(=O)NCC1(CCOCC1)C2 [Example 51, 3-(3-ethyl-4-oxo-spiro[6,8-dihydro-5H-pyrazolo[4,3-c]azepine-7,4′-tetrahydropyran]-1-yl)propyl 4-methyl-1,2,5-oxadiazole-3-carboxylate]",100 to 500 nM
22,"CCc1nn(CCCOC(=O)c2cc(C)nn2C)c2c1C(=O)NCC1(CCOCC1)C2 [Example 71, 3-(3-ethyl-4-oxo-spiro[6,8-dihydro-5H-pyrazolo[4,3-c]azepine-7,4′-tetrahydropyran]-1-yl)propyl 2,5-dimethylpyrazole-3-carboxylate]",100 to 500 nM
23,"CCc1nn(CCCOC(=O)c2cnc(C)o2)c2c1C(=O)NCC1(CCOCC1)C2 [Example 48, 3-(3-ethyl-4-oxo-spiro[6,8-dihydro-5H-pyrazolo[4,3-c]azepine-7,4′-tetrahydropyran]-1-yl)propyl 2-methyloxazole-5-carboxylate]",100 to 500 nM
